System: T1, native peroxidase (horseradish peroxidase)
T1 construct: gene PRXC1A
Settings: free enzyme; phenol varied; 4-aminoantipyrine 0.3 mmol/L, hydrogen peroxide 4.68 mmol/L; 0.1 M phosphate-buffered saline pH 7.2; 24 °C

Oc1ccccc1 [phenol]
Km: 994 µM
